Assay results taken from patent US20100003217A1, “Compounds and Pharmaceutical Compositions for the Treatment of Viral Infections” (priority 2008, published 2010).

System: Huh-7 cells
Assay: Metabolic disposition of [^14C]-Compound 1 and [^14C]-2′-C-methyl guanosine in Huh-7 cells (incubation medium, cellular extracts, nucleotide levels)
Assay type: in vitro ADME, human
Details: for 2′-C-methyl guanosine nucleotide levels in cellular extracts / Major metabolites observed in cellular extracts (% of total radioactivity) / AUC (area under the concentration-time curve) of Compound 7 levels: Huh7; for AUC (area under the concentration-time curve) of Compound 7 levels: 0-72 h
Procedure: Huh-7 cells: Confluent monolayers of Huh-7 cells were dispersed using trypsin-EDTA, rinsed and pelleted by centrifugation at 1,000 rpm (Beckman, Model Allegra 6R). Cells were resuspended at 0.2, 0.3 and 0.4×10^6 cells/mL of medium (DMEM supplemented with 1% pyruvate, 10% FBS, 0.5% penicillin-streptomycin, 1% L-glutamine, 1% non-essential amino acids and 22 mM HEPES). Multi-well collagen I-coated plates (rat tail collagen type I; 6-well) were then seeded by addition of 2.0 mL of cell suspension to achieve final cell density of 0.4, 0.6 and 0.8×10^6 cells/well and placed in an incubator at 37° C. overnight to allow cells to attach and acclimatize to culture and the medium. Duplicate plates were prepared with the same cell density for cell number determination at each time point.
Huh-7 incubations were conducted in a final volume of 2.0 mL Huh7 culture medium/well ([…]). Culture medium from overnight incubation of cells was removed and replaced with fresh culture medium, pre-warmed to 37° C. containing [^14C]-Compound 1 or [^14C]-2′-C-methyl guanosine as described above for primary hepatocytes. After 24, 48 and 72 hours, 0.5-1.0 mL of incubation medium was removed and stored at −20° C. until analysis (described below). The remaining medium was discarded and cell monolayers processed and extracted as described above.
Preliminary identification of putative metabolites was conducted by comparing the retention time of observed metabolites in incubation medium and cellular extracts with retention times obtained with chemically synthesized standards using the chromatography conditions described below. Further identification of 2′-C-methyl guanosine nucleotides (mono-, di- and triphosphate) was carried out by incubating cellular extract samples with alkaline phosphatase (10 units for 60 min at 37° C.) and comparing the HPLC retention times of the resulting nucleosides with that of authentic 2′-C-methyl guanosine.
Cellular extracts were prepared by centrifugation at 16,000 RCF using an Eppendorf microcentrifuge (Eppendorf, Model 5415D) for 10 min to remove cellular debris. An aliquot of 5-10 μL of the supernatant was added to 5 mL of EcoLite™ (MP, Irvine, Calif.) liquid scintillation cocktail and radioactivity measured by liquid scintillation counting (LSC) using a Beckman Coulter LS6500 multipurpose liquid scintillation counter (Beckman Instruments, Fullerton, Calif.). The remaining sample was then dried using a Labconco refrigerated centrivap concentrator (Labconco, Kansas City, Mo.). Dry extracts were reconstituted in 120 μL of HPLC-grade water and centrifuged at 16,000 RCF using an Eppendorf microcentrifuge for 10 min. Prior to HPLC analysis (described below), radioactivity of the concentrated extracts was measured by LSC using 5 μL aliquots. Extraction recovery was then determined by comparing total radioactivity in extracts before and after drying. The remaining extract was then analyzed by HPLC with online radioactivity detection using a Flow Scintillation Analyzer Radiomatic™ 515TR. Radioactivity in the separated components was quantified by integrating the peaks using Flo-One™ Software (Perkin Elmer Life Sciences). Samples with poor recovery (<85%) were re-analyzed when possible.
Incubation medium samples were thawed at room temperature, vortexed and centrifuged at 16,000 RCF using an Eppendorf microcentrifuge. An aliquot of 10 μL was added to 5 mL of EcoLite™ (MP, Irvine, Calif.) liquid scintillation cocktail and radioactivity measured by LSC using a Beckman Coulter LS6500 multipurpose liquid scintillation counter (Beckman Instruments, Fullerton, Calif.). Samples (50-100 μL) were then analyzed by HPLC (described below) with online radioactivity detection using a Flow Scintillation Analyzer Radiomatic™ 515TR. Radioactivity in the separated components was quantified by integrating the peaks using Flo-One™ Software (Perkin Elmer Life Sciences). Samples with poor recovery (<85%) were re-analyzed when possible. […]

[1] = 10 μM [^14C]-2′-C-methyl guanosine, 0 h, n = 1
[2] = 10 μM [^14C]-2′-C-methyl guanosine, 24 h
[3] = 10 μM [^14C]-2′-C-methyl guanosine, 24 h, n = 1
[4] = 10 μM [^14C]-2′-C-methyl guanosine, 48 h
[5] = 10 μM [^14C]-2′-C-methyl guanosine, 48 h, n = 1
[6] = 10 μM [^14C]-2′-C-methyl guanosine, 72 h
[7] = 10 μM [^14C]-2′-C-methyl guanosine, 72 h, n = 1
[8] = 10 μM [^14C]-Compound 1, 0 h, replicate 1 of n = 2
[9] = 10 μM [^14C]-Compound 1, 0 h, replicate 2 of n = 2
[10] = 10 μM [^14C]-Compound 1, 24 h, first series
[11] = 10 μM [^14C]-Compound 1, 24 h, replicate 1 of n = 2
[12] = 10 μM [^14C]-Compound 1, 24 h, replicate 2 of n = 2
[13] = 10 μM [^14C]-Compound 1, 24 h, second series
[14] = 10 μM [^14C]-Compound 1, 48 h, first series
[15] = 10 μM [^14C]-Compound 1, 48 h, replicate 1 of n = 2
[16] = 10 μM [^14C]-Compound 1, 48 h, replicate 2 of n = 2
[17] = 10 μM [^14C]-Compound 1, 48 h, second series
[18] = 10 μM [^14C]-Compound 1, 72 h, first series
[19] = 10 μM [^14C]-Compound 1, 72 h, replicate 1 of n = 2
[20] = 10 μM [^14C]-Compound 1, 72 h, replicate 2 of n = 2
[21] = 10 μM [^14C]-Compound 1, 72 h, second series

2′-C-methyl guanosine nucleotide levels in cellular extracts [1] [pmol/million cells] | Major metabolites observed in cellular extracts (% of total radioactivity) [4] | 2′-C-methyl guanosine nucleotide levels in cellular extracts [8] [pmol/million cells] | 2′-C-methyl guanosine nucleotide levels in cellular extracts [9] [pmol/million cells] | 2′-C-methyl guanosine nucleotide levels in cellular extracts [11] [pmol/million cells] | 2′-C-methyl guanosine nucleotide levels in cellular extracts [12] [pmol/million cells] | Major metabolites observed in cellular extracts (% of total radioactivity) [13] | Major metabolites observed in cellular extracts (% of total radioactivity) [14] | 2′-C-methyl guanosine nucleotide levels in cellular extracts [15] [pmol/million cells] | 2′-C-methyl guanosine nucleotide levels in cellular extracts [16] [pmol/million cells] | Major metabolites observed in cellular extracts (% of total radioactivity) [17] | Major metabolites observed in cellular extracts (% of total radioactivity) [18] | 2′-C-methyl guanosine nucleotide levels in cellular extracts [19] [pmol/million cells] | 2′-C-methyl guanosine nucleotide levels in cellular extracts [20] [pmol/million cells] | Compound | Major metabolites observed in cellular extracts (% of total radioactivity) [2] | 2′-C-methyl guanosine nucleotide levels in cellular extracts [3] | 2′-C-methyl guanosine nucleotide levels in cellular extracts [5] | Major metabolites observed in cellular extracts (% of total radioactivity) [6] | 2′-C-methyl guanosine nucleotide levels in cellular extracts [7] | Major metabolites observed in cellular extracts (% of total radioactivity) [10] | other results
0 | 3.56 % of total radioactivity | 0 | 0 | 2.20 | 0 | 7.55 % of total radioactivity | 6.14 % of total radioactivity | 1.60 | 1.40 | 6.42 % of total radioactivity | 6.86 % of total radioactivity | 1.60 | 1.10 | C[C@@]1(O)[C@H](O)[C@@H](COP(=O)(O)OP(=O)(O)O)O[C@H]1n1cnc2c(=O)[nH]c(N)nc21 [Compound 6, [(2R)-2-methyl-β-D-ribofuranosyl]guanine 5′-diphosphate] | BLD (BLD = below limit of detection (30 DPM)) | BLD (BLD = below limit of detection (0.02 pmol/million cells)) | BLD (BLD = below limit of detection (0.02 pmol/million cells)) | BLD (BLD = below limit of detection (30 DPM)) | BLD (BLD = below limit of detection (0.02 pmol/million cells)) | BLD (BLD = below limit of detection (30 DPM)) | Major metabolites observed in cellular extracts (% of total radioactivity) [21]: 8.44 % of total radioactivity
0 | 7.18 % of total radioactivity | 0 | 0 | 8.60 | 21.3 | 71.8 % of total radioactivity | 71.5 % of total radioactivity | 16.1 | 15.2 | 59.3 % of total radioactivity | 72.1 % of total radioactivity | 11.1 | 13.3 | C[C@@]1(O)[C@H](O)[C@@H](COP(=O)(O)OP(=O)(O)OP(=O)(O)O)O[C@H]1n1cnc2c(=O)[nH]c(N)nc21 [Compound 7, [(2R)-2-methyl-β-D-ribofuranosyl]guanine 5′-triphosphate] | 10.5 % of total radioactivity | 3.10 pmol/million cells | 1.40 pmol/million cells | 10.4 % of total radioactivity | 1.60 pmol/million cells | 59.7 % of total radioactivity | AUC (area under the concentration-time curve) of Compound 7 levels (10 μM [^14C]-2′-C-methyl guanosine, n = 1): 120 pmol * hr/million cells; AUC (area under the concentration-time curve) of Compound 7 levels (10 μM [^14C]-Compound 1, replicate 1 of n = 2): 726 pmol * hr/million cells; AUC (area under the concentration-time curve) of Compound 7 levels (10 μM [^14C]-Compound 1, replicate 2 of n = 2): 1,020 pmol * hr/million cells; Major metabolites observed in cellular extracts (% of total radioactivity) [21]: 69.6 % of total radioactivity; Compound 7 AUC0-72h (Huh7 cells (n=1), [^14C]-2′-C-methyl guanosine): 120 pmol*h/million cells; Compound 7 AUC0-72h (Huh7 cells (n=2), [^14C]-Compound 1): 873 pmol*h/million cells; Compound 7 maximum concentration (Huh7 cells, [^14C]-2′-C-methyl guanosine, at 24 hours): 3 pmol/million cells; Maximum Compound 7 levels (Huh7 cells, [^14C]-Compound 1, at 48 hours): 16 pmol/million cells; % of total radioactivity in cellular extracts (Huh7 cells, up to 72 hours after [^14C]-Compound 1 incubation): 83-93%; Levels of Compound 7 in Huh7 cells lower than in human hepatocytes ([^14C]-Compound 1): 88%
